The nature of this data set: Release kinetics in solution: t1/2, time for one half of the molecule to cleave and release the azole moiety. The class given is physicochemical. The text has this:
The release kinetics in solution of the compounds of the invention vary over a wide range.
*rate of hydrolysis approximates rate of release
**measured in 50% ethanol/water solution
***solution was 0.022N in KOH

The mark [1] stands for this setting: 1×10^-4 molar in 30% acetonitrile/0.25 N aqueous KOH, 22°±0.1° C., release of azole moiety.

The values below come from patent US4350754A, “Blocked development restrainers” (Polaroid Corporation, priority 1981, dated 1982).

With `Cn1c(=O)[nH]cc(CSc2nnnn2-c2ccc(O)cc2)c1=O` [Compound XI], the t1/2 under setting [1] is 4.0 s.

`CC(=O)Oc1ccc(-n2nnnc2SCc2c[nH]c(=O)[nH]c2=O)cc1` [Compound XX]: where the note is “hydrolysis, 30% acetonitrile/0.25 N aqueous KOH, 22° C.”, the “t1/2 (hydrolysis)” value was found to be 2.5 s.

In turn, `Cn1c(=O)[nH]cc(Cn2nnn(-c3ccccc3)c2=S)c1=O` [VIII] gave a t1/2 under setting [1] of 1512 s.

`Cn1c(=O)[nH]cc(CSc2nnnn2-c2ccccc2)c1=O` [II] returned a t1/2 under setting [1] of 0.81 s.

Turning to `CC(=O)n1c(=O)[nH]cc(Cn2nnn(-c3ccccc3)c2=S)c1=O` [Compound XXXI], under setting [1], the t1/2 was determined as 911 s.

On to `O=c1[nH]cc(Cn2nc(-c3cccs3)oc2=S)c(=O)[nH]1` [XIV], for which the t1/2 under setting [1] turned out to be 4320 s.

Take `O=c1[nH]cc(Cn2nnn(-c3ccccc3)c2=S)c(=O)[nH]1` [VII]: the t1/2 under setting [1] is 900 s.

In turn, `O=c1[nH]cc(CSc2ncnc3[nH]cnc23)c(=O)[nH]1` [Compound XVII] came in with a t1/2 under setting [1] of 77.8 s.

Consider `O=c1[nH]cc(Cn2nc(-c3ccccc3)oc2=S)c(=O)[nH]1` [Compound X], for which the t1/2 under setting [1] came out at 1080 s.

For the setting “measured in 50% ethanol/water solution, 22° C.”, `Cc1ccc(Nc2nnc([Se]Cc3c[nH]c(=O)[nH]c3=O)[se]2)cc1` [Compound XIX] showed a t1/2 of 48.8 s.

Molecule `O=c1[nH]cc(CSc2ncccn2)c(=O)[nH]1` [Compound XVIII] gave a t1/2 under setting [1] of 35.9 s.

Take `CC(=NO)c1ccc(-n2nnnc2SCc2c[nH]c(=O)n(C)c2=O)cc1` [Compound XXVI]: under setting [1], the t1/2 worked out at 0.87 s.

For `CC(=O)Oc1ccc(-n2nnnc2SCc2c[nH]c(=O)n(C)c2=O)cc1` [V], the t1/2 (30% acetonitrile/0.25 N aqueous KOH, 22° C., rate of hydrolysis approximates rate of release) lay within 1.8 to 4.0 s.

Under setting [1], `O=C(c1ccccc1)n1c(=O)[nH]cc(CSc2nnnn2-c2ccccc2)c1=O` [XII] yielded a t1/2 of 31.2 s.
